Data reported in patent US20260317304A1, “TEAD INHIBITORS AND METHODS OF USE” (Sporos BioDiscovery, Inc., priority 2022, published 2026).
“Also recorded” adds a separate entry of the source.

Key:
NCI-H226 cells [1] = assay: Proliferation and cell viability assay, CellTiter-Glo 2.0 (CTG); format: cell-based, human; details: Homo sapiens, NCI-H226, responder cell line, 144 hrs
Procedure: (§1) Cell proliferation of a TEAD dependent NF2-null mesothelioma cell line, NCI-H226 was assayed using two different protocols. Results were confirmed in two different TEAD-non-dependent lung cancer cell lines, H23 and H28, were used as non-responsive controls, as indicated:
a) CellTiter-Glo® 2.0 (Promega #G9243). The effect of the TEAD inhibitors disclosed herein on cell proliferation was determined in TEAD1-genetically dependent cell line NCI-H226 (responder cell line) and TEAD-independent cell lines (NCI-H23, HEK293T), as non-responder, negative control. Cells were seeded in 96-well plates (Thermo Scientific #167008) in growth media (RPMI-1640, Gibco #61870-010) for NCI-H226 and NCI-H23 or DMEM (Gibco #31966-021, HEK293T) with […] Heat Inactivated Fetal Bovine Serum (Gibco 10500-064) at 800 (NCI-H226 and HEK-293T) or 2000 (NCI-H23) cells per well at 37° C., […], humidified incubator; 24 hours later, fresh growth media containing test compound or DMSO vehicle was added and incubated with the cells for 144 hrs. TEAD inhibitor stocks were made at a 1000× fold excess in DMSO, and a dose response test compound dose range of 10,000 to 0.1 nM was used. Each treatment was carried out in triplicate. After 144 hrs of treatment, relative cell viability numbers were determined using the CellTiter-Glo 2.0 assay following the manufacturer's instructions. Test plates and CellTiter-Glo 2.0 reagent were allowed to equilibrate to room temperature. CellTiter-Glo 2.0 reagent was added at 1:1 reagent to media ratio to the 96-well cell plates, plates were placed on a plate shaker for 2 minutes and then incubated at room temperature for a further 10 minutes to allow complete cell lysis to occur. The mix was then transferred to white, 96-well luminometer assay plates (Greiner Bio One #655075). Luminescence was quantified using a CLARIOStar Plus multi-mode plate reader (BMG Labtech) in luminescence detection mode with the recommended settings (ultra-Glo pre-set: emission 545-50 nm with autofocus and enhanced dynamic range on). Relative cell density was expressed as a function of inhibitor concentration, with respect to DMSO-only control wells. Data where plotted using GraphPad Prism and IC50 values for the biological effect were calculated using the EC50 non-linear fit function using a sigmoidal, 4-parameter logistic, least squares fit with no constraints.
(§2) For IC50 and EC50 data “A” indicates a value of less than 0.2 μM; the symbol “B” indicates a value in the range of from 0.2 μM up to 1 μM; and the symbol “C” indicates a value of greater than 1 μM. ND: no data.

NCI-H23 cells = assay: as above; format: cell-based; details: Homo sapiens, non-responder cell line, 144 hrs
Procedure: as §1
a) CellTiter-Glo® 2.0 (Promega #G9243). The effect of the TEAD inhibitors disclosed herein on cell proliferation was determined in TEAD1-genetically dependent cell line NCI-H226 (responder cell line) and TEAD-independent cell lines (NCI-H23, HEK293T), as non-responder, negative control. […] After 144 hrs of treatment, relative cell viability numbers were determined using the CellTiter-Glo 2.0 assay following the manufacturer's instructions. […] Luminescence was quantified using a CLARIOStar Plus multi-mode plate reader (BMG Labtech) in luminescence detection mode with the recommended settings (ultra-Glo pre-set: emission 545-50 nm with autofocus and enhanced dynamic range on). Relative cell density was expressed as a function of inhibitor concentration, with respect to DMSO-only control wells. Data where plotted using GraphPad Prism and IC50 values for the biological effect were calculated using the EC50 non-linear fit function using a sigmoidal, 4-parameter logistic, least squares fit with no constraints. […]

NCI-H226 cells [2] = assay: Proliferation and cell viability assay, Cell Titer One; format: cell-based, human; details: Homo sapiens, NCI-H226, 144 h, Cell Titer One assay, 6 days
Procedure: as §1
b) Cell Titer One (Promega, #G3582). The effect of the TEAD inhibitors disclosed herein on cell proliferation was also determined using the Promega Substrate Cell Titer Aqueous One Solution Reagent. The TEAD inhibitors were evaluated for the effects on cell proliferation responder (H226) and non-responder negative control cancer cell lines (CAMA1, H28), as well as non-transformed normal human cells (HUVEC, NHDF). Dissociated cells were resuspend in media (depending on cell line, either in DMEM, RPMI, or EMEM all with 10% FBS, with gentamicin as an antibiotic). Cells were seeded at 100 μL/well at 750 cells per well in 96-well plates and allowed to settle and attach. After an incubation of 24 hrs (37° C., 5% CO2, humidified incubator), 100 μL of test compound-containing media was added. A dilution series of 2000× concentrated stock of test compounds was prepared in DMSO, for final concentrations from 0.1 to 10,000 nM. After addition of test compound-containing media, cells were incubated for 6 days at 37° C., 5% CO2, humidified incubators). To measure cell density, 20 μL of Promega Substrate Cell Titer 96 Aqueous One Solution Reagent (Promega, #G3582) to each well was added according to the manufacturer's instructions. Plates were incubated at 37° C. for usually 3-8 hrs, to reach in the control cells (without compound) an OD of 1.5 at 490 nm. The OD was measured using Vmax [Molecular Devices] spectrophotometer plate reader. Media only-wells were used as background controls and cell densities normalized to DMSO vehicle control. EC50 were taken as the concentration achieving 50% of maximal growth inhibition.
as §2

MSTO-211H xenograft = assay: Mouse xenograft MSTO-211H tumors compared to prior art TEAD inhibitor; format: in vivo, BALB/c nude mice; details: 7 days of treatment, PO BID, 3 mg/kg Compound 1-1
Procedure: This study evaluated the in vivo anti-tumor efficacy of test compounds in BALB/c nude mice for treatment of MSTO-211H xenograft of lung cancer.
The MSTO-211H tumor cells were maintained in vitro in RPMI 1640 medium supplemented with 10% Fetal bovine serum and 1% Antibiotic-Antimycotic at 37° C. in an atmosphere of 5% CO2 in air. The tumor cells were routinely subcultured twice weekly by trypsin-EDTA. The cells growing in an exponential growth phase were harvested and counted for tumor inoculation.
Each mouse was inoculated subcutaneously at the right flank with MSTO-211H tumor cells (10×10^6+50% matrigel/0.2 mL) for tumor development. Test subjects received vehicle (e.g., 0.5% CMC-Na+1% Tween80) beginning on day 7 after cell inoculation. […]
The major endpoint was to determine if the tumor growth could be delayed. Tumor size was measured twice a week in two dimensions using a caliper, and the volume was expressed in mm^3 using the formula: V=0.5 a×b^2 where a and b are the long and short diameters of the tumor, respectively. […]
Summary statistics, including mean and the standard error of the mean (SEM), were calculated for the tumor volume of each group at each time point. […]
One-tailed T test was performed to compare tumor volumes between two groups. All data were analyzed using GraphPad Prism 6.0. p<0.05 was considered to be statistically significant.

[3] = as reported by Tang et al.; cited from earlier work
SDM103T2 cells = assay: SDM103T2 proliferation and cell viability assay (CTG); format: cell-based; details: 144 hours
Procedure: SDM103T2 cells were trypsinised, counted and plated at 800 cells/well in 200 μl of growth media in 96 well flat bottom tissue culture treated plates. The plated cells were incubated overnight at 37° C., 5% CO2 before being treated with compounds in triplicate for each assay point. 50 μl of the serially diluted compound was added to each well giving a final DMSO concentration of 0.5% per well and a total volume of 250 μl per well. The treated cells were incubated for 144 hours (6 days) at 37° C., 5% CO2. Following compound treatment the remaining viable cells were detected using the Promega CellTiter-Glo 2.0 assay as follows: 150 μl of media was removed from each of the wells to be assayed and 100 μl of room temperature CellTiter-Glo 2.0 reagent was added. The plate was placed on an orbital shaker at 500 rpm at room temperature for 2 minutes, and then incubated without shaking for a further 10 minutes at room temperature. 150 μl of cell lysate was removed from each well and dispensed into a single well of a white opaque 96 well plate. Luminescence at 545 nm was read using a BMG CLARIOstar plate reader. The luminescent signal was directly proportional to number of viable cells, the percent of viable cells relative to the DMSO control was then calculated for each assay point. Percent viability relative to DMSO control was plotted against compound concentration and a curve fitted with non-linear regression in GraphPad Prism software. EC50 and absolute IC50 values were calculated using GraphPad Prism software as follows: For EC50 values a non-constrained four-parameter logistic curve fit was used (Sigmoidal, 4PL, X is concentration). For Absolute IC50 values the baseline was constrained to Y=0 and top at 100 (Absolute IC50, X is concentration). Area Under the Curve (AUC): Prism computes area-under-the-curve by the trapezoidal method. The analysis sees a fitted curve as simply a series of connected XY points. Prism simply computes the area under the “curve” defined by connecting the points by straight lines. The units of the AUC are the units of the Y axis times units of the X axis.
For EC50 data, the symbol “A” indicates a value of less than 0.2 μM; the symbol “B” indicates a value in the range of from 0.2 μM up to 1 μM; and the symbol “C” indicates a value of greater than 1 μM.

TEAD = details: control compounds; cited from earlier work
TEAD isoforms 1-4 [4] = assay: TEAD thermal shift assay (TSA), outcome in words; format: binding, human
Description: (§3) Thermal shift assay (TSA) is a biophysical method to evaluate stability of proteins with change in temperature. The assay measures thermal denaturation temperature in varying conditions such as different drug concentration. For this example, fluorogenic dye was used that bind to unfolded proteins. SYPRO Orange binds non-specifically to hydrophobic surfaces, and water strongly quenches its fluorescence. When the protein unfolds, the exposed hydrophobic surfaces bind the dye, resulting in an increase in fluorescence by excluding water. Detergent micelles also bind the dye and increase background noise dramatically. Binding of small molecules to proteins leads to a stabilization against to thermal denaturation with the degree of thermal stabilization proportional to the strength of binding.
(§4) The study described in this example investigated the change in melting temperature (ΔTm) of TEAD isoforms 1-4 when treated with TEAD inhibitors.
(§5) Tris-HCL was dissolved in 5 mL of Cell culture grade water and allowed to dissolve completely. The pH was adjusted to 8 using NaOH. Additional assay buffer components were added in the order listed above. The buffer was mixed slowly.
(§6) Assay buffer was prepared according to the procedures outlined above and dispensed into test wells. Spyro orange was added to a concentration of 5× in the assay buffer, followed by test compound stock solution which was added to a concentration of 10 μM or 30 μM in the assay buffer.
(§7) The melt cycle was performed in Bio-RAD PCR instrument from 20-95° C. with ramp rate of 1° C./min.

TEAD4 [5] = biological target: TEAD4 (Homo sapiens, UniProt Q15561); assay: TEAD thermal shift assay (TSA); format: binding
Description: as §3, §4, §5, §6, §7

TEAD3 [6] = biological target: TEAD3 (Homo sapiens, UniProt Q99594); assay: TEAD thermal shift assay (TSA); format: binding
Description: as §3, §4, §5, §6, §7

TEAD2 [7] = biological target: TEAD2 (Homo sapiens, UniProt Q15562); assay: TEAD thermal shift assay (TSA); format: binding
Description: as §3, §4, §5, §6, §7

TEAD1 [8] = biological target: TEAD1 (Homo sapiens, UniProt P28347); assay: TEAD thermal shift assay (TSA); format: binding
Description: as §3, §4, §5, §6, §7

TEAD4 [9] = details: thermal shift; cited from earlier work
TEAD isoforms 1-4 [10] = details: thermal shift data of Tang and Post; cited from earlier work
TEAD1 [11] = details: thermal shift; cited from earlier work
TEAD2 [12] = details: thermal shift; cited from earlier work
TEAD3 [13] = details: thermal shift; cited from earlier work
[14] = Ratio of Protein to Compound 1:3
[15] = Ratio of Protein to Compound 1:1

TEAD4 (Homo sapiens, UniProt Q15561), sequence (Q15561 whole entry): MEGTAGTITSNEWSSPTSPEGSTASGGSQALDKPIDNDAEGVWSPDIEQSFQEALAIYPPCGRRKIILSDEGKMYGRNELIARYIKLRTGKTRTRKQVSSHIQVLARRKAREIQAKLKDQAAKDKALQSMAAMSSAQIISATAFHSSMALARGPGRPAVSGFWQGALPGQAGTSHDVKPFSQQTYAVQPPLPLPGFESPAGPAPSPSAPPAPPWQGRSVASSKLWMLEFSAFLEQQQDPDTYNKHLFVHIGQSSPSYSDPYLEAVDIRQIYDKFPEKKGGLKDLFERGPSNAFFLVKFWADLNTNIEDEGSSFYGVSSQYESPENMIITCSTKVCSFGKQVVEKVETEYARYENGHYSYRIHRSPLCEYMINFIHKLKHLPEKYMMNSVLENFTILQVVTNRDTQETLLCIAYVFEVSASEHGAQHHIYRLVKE
TEAD2 (Homo sapiens, UniProt Q15562), sequence (Q15562 whole entry): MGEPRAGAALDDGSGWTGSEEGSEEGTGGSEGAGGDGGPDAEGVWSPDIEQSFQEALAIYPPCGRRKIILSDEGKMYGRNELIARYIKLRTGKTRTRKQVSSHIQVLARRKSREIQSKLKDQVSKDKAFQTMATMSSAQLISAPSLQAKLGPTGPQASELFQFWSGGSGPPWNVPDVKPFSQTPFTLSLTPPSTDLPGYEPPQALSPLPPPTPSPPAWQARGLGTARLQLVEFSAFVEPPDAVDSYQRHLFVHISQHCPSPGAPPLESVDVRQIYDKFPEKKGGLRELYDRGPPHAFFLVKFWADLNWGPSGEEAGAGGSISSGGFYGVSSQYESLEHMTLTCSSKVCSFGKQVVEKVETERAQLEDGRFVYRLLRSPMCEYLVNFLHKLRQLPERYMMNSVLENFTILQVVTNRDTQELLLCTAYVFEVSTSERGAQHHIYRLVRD
TEAD3 (Homo sapiens, UniProt Q99594), sequence (Q99594 whole entry): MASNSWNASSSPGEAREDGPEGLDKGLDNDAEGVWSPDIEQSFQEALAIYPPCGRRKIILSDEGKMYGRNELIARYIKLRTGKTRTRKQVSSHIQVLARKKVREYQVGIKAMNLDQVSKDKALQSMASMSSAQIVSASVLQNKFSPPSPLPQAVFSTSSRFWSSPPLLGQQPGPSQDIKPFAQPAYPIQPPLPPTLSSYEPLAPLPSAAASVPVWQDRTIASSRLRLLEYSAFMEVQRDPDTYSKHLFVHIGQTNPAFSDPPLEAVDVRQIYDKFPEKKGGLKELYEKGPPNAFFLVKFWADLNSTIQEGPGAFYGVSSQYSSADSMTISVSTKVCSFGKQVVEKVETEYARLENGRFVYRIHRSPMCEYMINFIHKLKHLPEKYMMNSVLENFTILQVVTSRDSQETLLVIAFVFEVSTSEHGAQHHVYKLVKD
TEAD1 (Homo sapiens, UniProt P28347), sequence (P28347 whole entry): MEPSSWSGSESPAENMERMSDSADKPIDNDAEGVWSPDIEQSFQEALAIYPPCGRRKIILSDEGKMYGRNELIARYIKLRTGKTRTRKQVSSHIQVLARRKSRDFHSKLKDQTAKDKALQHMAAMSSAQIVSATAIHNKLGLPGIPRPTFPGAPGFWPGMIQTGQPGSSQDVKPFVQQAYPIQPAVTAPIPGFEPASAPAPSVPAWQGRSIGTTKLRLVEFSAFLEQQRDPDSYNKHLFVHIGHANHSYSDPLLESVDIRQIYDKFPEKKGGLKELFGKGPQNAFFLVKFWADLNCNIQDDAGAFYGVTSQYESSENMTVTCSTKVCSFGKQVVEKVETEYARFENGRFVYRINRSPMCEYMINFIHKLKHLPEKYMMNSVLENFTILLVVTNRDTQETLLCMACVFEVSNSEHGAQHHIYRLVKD

## Cc1nnc(-c2cc(C3(C)CCNC3=O)ccc2Nc2ccc(C(F)(F)F)cc2)o1 (racemic) [Compound 1, 3-methyl-3-(3-(5-methyl-1,3,4-oxadiazol-2-yl)-4-((4-(trifluoromethyl)phenyl)amino)phenyl) pyrrolidin-2-one]
NCI-H226 cells [1]
  EC50: < 200 nM
NCI-H23 cells
  IC50: > 1000 nM
NCI-H226 cells [2]
  IC50: < 200 nM

## Cn1cnc(-c2cc(C3(C)CCNC3=O)ccc2Nc2ccc(C(F)(F)F)cc2)c1 (racemic) [Compound 2, 3-methyl-3-(3-(1-methyl-1H-imidazol-4-yl)-4-((4-(trifluoromethyl)phenyl)amino)phenyl) pyrrolidin-2-one]
NCI-H226 cells [1]
  EC50: < 200 nM
NCI-H23 cells
  IC50: > 1000 nM
NCI-H226 cells [2]
  IC50: < 200 nM

## CNS(=O)(=O)c1ccc(Nc2ccc(C(F)(F)F)cc2)c(-c2cn(C)cn2)c1 [Compound 1-1]
MSTO-211H xenograft
  change in tumor volume (in words): Tumor growth was observed
[3]
  half-life (in words): long half-life
SDM103T2 cells
  EC50: < 200 nM
TEAD
  known TEAD inhibition (in words): known strong TEAD1 and weak TEAD2 inhibitor
TEAD isoforms 1-4 [4]
  thermal shift / TEAD binding (in words): pronounced thermal shift only for TEAD1
TEAD4 [5]; [14]
  TEAD4 ΔTm: 1 °C
TEAD3 [6]; [14]
  TEAD3 ΔTm: 0 °C
TEAD2 [7]; [14]
  TEAD2 ΔTm: 1 °C

## C[C@H](NC(=O)c1ccc2c(-c3ccc(C(F)(F)F)cc3)cccc2c1)c1cccc(N)n1 [Compound 1-4]
TEAD
  known TEAD inhibition (in words): pan-TEAD inhibitor
TEAD isoforms 1-4 [4]
  thermal shift / TEAD binding (in words): thermal shifts for all four TEAD isoforms
TEAD4 [5]; [15]
  TEAD4 ΔTm: 1.5 °C
TEAD4 [5]; [14]
  TEAD4 ΔTm: 11 °C
TEAD3 [6]; [15]
  TEAD3 ΔTm: 3 °C
TEAD1 [8]; [15]
  TEAD1 ΔTm: 7.5 °C
TEAD1 [8]; [14]
  TEAD1 ΔTm: 11 °C
TEAD2 [7]; [15]
  TEAD2 ΔTm: 2.5 °C
TEAD2 [7]; [14]
  TEAD2 ΔTm: 11 °C

## C[C@H](CO)NC(=O)c1ccc2c(Oc3ccc(C(F)(F)F)cc3)cccc2c1 [VT3989]
TEAD4 [9]
  TEAD4 ΔTm: 4.6 °C
TEAD isoforms 1-4 [10]
  TEAD isoform interaction / binding (in words): primarily interacts with TEAD1-3; also recorded: lower levels of binding to TEAD4
  selectivity over TEAD2 and 3 (in words): minimal selectivity over TEAD2 and 3
TEAD1 [11]
  TEAD1 ΔTm: 11.6 °C
TEAD2 [12]
  TEAD2 ΔTm: 8.8 °C
TEAD3 [13]
  TEAD3 ΔTm: 8.5 °C
